Test results as given in patent publication US12502433B2, “Phosphonate-drug conjugates” (Massachusetts Eye and Ear Infirmary, priority 2016, dated 2025).
Like-named read-outs stand apart in the source and are kept apart here.

Legend:
spiral ganglion neurons = assay: In vitro spiral ganglion neurite outgrowth; format: cell-based, CBA/CaJ pups; details: 400 nM, 48 hours
Method: Cochleae were harvested from P3-4 CBA/CaJ pups, after which the spiral ganglion neurons were sharply dissected free in a clump of cells, divided into three roughly equal sections, and plated with fibronectin on Dulbecco's Modified Eagle's medium (DMEM). Individual sections were then treated with media alone, 400 nM DHF, 400 nM RIS, or 400 nM DHF-RIS (Example 1) for 48 hours. After fixing and immunostaining with TUJI, the neurites were visualized under confocal microscopy and the neurite length quantified using ImageJ.

ribbon synapses = assay: Ribbon synapse regeneration in organ of Corti explants after kainic acid; format: cell-based; details: 400 nM after two hours kainic acid
Method: To characterize the ability of DHF-RIS to regenerate ribbon synapses, a previously described organ of Corti explant system was used, wherein kainic acid was used to mimic excitotoxic damage to the ribbon synapse (see e.g., Wang et al, 7The Journal of Neuroscience: the official journal of the Society for Neuroscience, 2011, 31:7938-7949). Explants were treated with kainic acid for two hours to destroy synapses and then treated with 400 nM DHF, 400 nM RIS, or […] DHF-RIS (Example 1). Comparison was made with control samples not treated with kainic acid (KA−) and samples treated with kainic acid but no other drug (KA+). Synapses were detected by co-localization of CtBP2 and PSD95 as previously described and counted using the Amira program by an observer blinded to sample identity.

SG neurites = assay: In vitro attraction of SG neurites after pre-binding to hydroxyapatite; format: cell-based
Method: This assay was performed to confirm that the DHF moiety within DHF-RIS (Example 1) remained available to attract neurites from a distance after binding to hydroxyapatite, a mineral substitute for bone. In a modification of the data shown in FIG. 14A, a separate set of experiments was performed in which RIS-DHF was pre-bound to hydroxyapatite pellets. The pellets were washed with media, and plated along with SGN explants. To visualize the hydroxyapatite pellets, a small amount of 6-FAM-ZOL (Example 4) was added to all samples. It was observed that neurites traveled up to […] before ending on and overlapping with hydroxyapatite pellets, as shown in FIG. 14C.

[1] = format: in vivo
Method: Male albino guinea pigs (Hartley strain; Charles River Laboratories, Inc., Wilmington, MA), each weighing approximately 350 g, were used. Nembutal (12.5 mg/kg intraperitoneally), Fentanyl (0.1 mg/kg intramuscularly), and Droperidol (5 mg/kg intramuscularly) were given for anesthesia. Supplemental doses of 0.7 mg/kg Fentanyl and 3.0 mg/kg Droperidol alternating with 6.25 mg/kg Nembutal were administered as needed. Animals were euthanized using pentobarbital (Fatal-Plus) at 390 mg/kg. The Massachusetts Eye and Ear Infirmary Institutional Animal Care and Use Committee approved all procedures.
All animals were therefore analyzed after maximal bisphosphonate deposition. Systemic delivery animals were analyzed at 48 hrs to account for potential differences between IP (our system) and IV (human) delivery.
The inner ears were harvested and stripped of soft tissue. All subsequent steps were performed in covered vials to prevent 6-FAM-ZOL bleaching. Specimens were fixed in an excess volume of neutral buffered formalin (10%, Fisher Scientific, Pittsburgh PA) at room temperature for 24 hours. The neutral buffered formalin was changed and fixation continued for another 24 hours. To prepare for resin embedding, specimens were dehydrated in an ascending series of ethanol (Fisher Scientific, 24 hr at 70%, 1 hr at 70%, 1 hr at 85%, 0.5 hr at 95%, 0.5 hr at 100%) followed by a wash in xylene (Fisher Scientific) and a 15 minute immersion in xylene. Specimens were cleared of xylene by a 1 hour infiltration in methyl methacrylate (MMA, Acrylosin soft, Dorn and Hart, Villa Park, IL) under vacuum. The MMA solution was changed and samples were infiltrated for 24 hours under vacuum. The infiltration solution was changed and the process was repeated for another 24 hours. Specimens were embedded in a solution of MMA containing 0.25% w/v (2.5 g/L) of perkadox-16 (Dom and Hart) for several hours under vacuum. After several hours, specimens were sealed in 50 mL polypropylene tubes and maintained at room temperature in a heat sink until fully cured (approximately 5 days).
Sections were prepared for fluorescent imaging by orienting and grinding the sample surface to the level of the mid-modiolus. Surfaces were polished on a 12″ table mounted rotary wheel using water and a progressively finer series of silicon carbide abrasive papers ending with 2400 grit (Buehler, Lake Bluff, 11).
High-resolution images (1360 by 1024; 16 bit) were taken under FITC illumination (470/40 excitation, 4951p dicroic; 525/50 emission) using a Carl Zeiss Axiovert 200 Inverted Microscope. ImageJ (Rasband WS, ImageJ, United States National Institutes of Health, Bethesda, Maryland, USA, 1997-2014) was used to quantify the amount of fluorescence within the cochlear wall and modiolus at each half-turn, as shown in FIG. 1. Background fluorescence, defined as the average amount of fluorescence in an area of the resin block containing no sample, was subtracted from all measurements. Fluorescence remained stable over at least two weeks after grinding if samples were kept in the dark at room temperature. Some images were also collected using a Leica TCS-SP2 confocal microscope. Confocal images were collected over a depth of 500 μm to generate maximum fluorescence images.
Mixed model analysis of variance was used to analyze the effect of dose on fluorescent response in the cochlea.

[2] = Hearing measurements (ABR, DPOAE) after systemic 6-FAM-ZOL; format: in vivo, guinea pig
Method: ABRs were recorded via subdermal needle electrodes (vertex—ventrolateral to the pinna of the test ear with a ground at the base of the tail). The CAPs electrode was located near the round window niche. Sound level was incremented in 5 dB steps, from ˜10 dB below threshold to 90 dB sound pressure level (SPL). Threshold for ABRs and CAPs was defined as the lowest stimulus level at which a repeatable wave could be identified in the response waveform.
Distortion product otoacoustic emissions (DPOAEs) were recorded for primary tones (f1, f2) over the same f2 range of frequencies, with a frequency ratio of 1.2, and with the level of the f2 primary 10 dB less than f1 level. Primaries were incremented together in 5 dB steps from −10 dB below threshold to 80 dB SPL. Ear-canal sound pressure was amplified and digitally sampled, FFTs were computed and averaged, and the 2f1-f2 DPOAE and surrounding noise floor were extracted. Iso-response contours were interpolated from plots of response amplitude vs. sound level. Threshold is defined as the f1 level required to produce a DPOAE of −5 dB SPL.
Distortion product otoacoustic emissions (DPOAEs) and auditory brainstem responses (ABRs) were measured in the systemic and round window membrane (RWM) delivery experiments. […] Hearing was measured at 2.78, 4, 5.6, 8, 12, 16, 24, and 32 kHz. […]

[3] = Round window membrane (RWM) alginate bead delivery of 6-FAM-ZOL: cochlear fluorescence; format: in vivo, guinea pig
Method: All animals were therefore analyzed after maximal bisphosphonate deposition. […] Round window delivery animals were analyzed at 3 weeks to allow middle ear inflammation to subside prior to hearing analysis and to account for transit across the RWM.
The inner ears were harvested and stripped of soft tissue. All subsequent steps were performed in covered vials to prevent 6-FAM-ZOL bleaching. Specimens were fixed in an excess volume of neutral buffered formalin (10%, Fisher Scientific, Pittsburgh PA) at room temperature for 24 hours. The neutral buffered formalin was changed and fixation continued for another 24 hours. To prepare for resin embedding, specimens were dehydrated in an ascending series of ethanol (Fisher Scientific, 24 hr at 70%, 1 hr at 70%, 1 hr at 85%, 0.5 hr at 95%, 0.5 hr at 100%) followed by a wash in xylene (Fisher Scientific) and a 15 minute immersion in xylene. Specimens were cleared of xylene by a 1 hour infiltration in methyl methacrylate (MMA, Acrylosin soft, Dorn and Hart, Villa Park, IL) under vacuum. The MMA solution was changed and samples were infiltrated for 24 hours under vacuum. The infiltration solution was changed and the process was repeated for another 24 hours. […]
High-resolution images (1360 by 1024; 16 bit) were taken under FITC illumination (470/40 excitation, 4951p dicroic; 525/50 emission) using a Carl Zeiss Axiovert 200 Inverted Microscope. ImageJ (Rasband WS, ImageJ, United States National Institutes of Health, Bethesda, Maryland, USA, 1997-2014) was used to quantify the amount of fluorescence within the cochlear wall and modiolus at each half-turn, as shown in FIG. 1. Background fluorescence, defined as the average amount of fluorescence in an area of the resin block containing no sample, was subtracted from all measurements. Fluorescence remained stable over at least two weeks after grinding if samples were kept in the dark at room temperature. […] Confocal images were collected over a depth of 500 μm to generate maximum fluorescence images. […]

[4] = Hearing measurements (ABR, DPOAE) after RWM 6-FAM-ZOL; format: in vivo, guinea pig
Source text: Acoustic stimuli were digitally generated and auditory responses were monitored using a National Instruments PXI stimulus generation/data acquisition system, which included a 24 bit digital I-O board (PXI-4461) and a 16 bit digital I-O board (PXI-6221) and the Eaton Peabody Laboratories Cochlear Function Test Suite. To elicit the auditory brainstem responses (ABRs) and the compound action potentials (CAPs), 5 ms tone pip stimuli were used with 0.5 ms rise/fall times (cosine squared) in alternating polarity at 33/s.
Acoustic stimuli were delivered via a custom acoustic assembly comprising two dynamic drivers as sound sources and a miniature electret microphone to measure sound pressure in situ (for a complete description, see e.g., http://www.masseyeandear.org/research/otolaryngology/investigators/laboratories/eaton-peabody-laboratories/ep1-engineering-resources). The response from the electrodes was amplified (10,000×), filtered (0.3-3 kHz bandpass), and averaged (512 samples at each frequency-level combination for ABRs and 128 samples for CAPs).
ABRs were recorded via subdermal needle electrodes (vertex—ventrolateral to the pinna of the test ear with a ground at the base of the tail). The CAPs electrode was located near the round window niche. […]
Distortion product otoacoustic emissions (DPOAEs) were recorded for primary tones (f1, f2) over the same f2 range of frequencies, with a frequency ratio of 1.2, and with the level of the f2 primary 10 dB less than f1 level. […]
Distortion product otoacoustic emissions (DPOAEs) and auditory brainstem responses (ABRs) were measured in the systemic and round window membrane (RWM) delivery experiments. […] Hearing was measured at 2.78, 4, 5.6, 8, 12, 16, 24, and 32 kHz.
The round window was visualized via a bullectomy approach and the beads were placed within the round window membrane (RWM) niche under direct microscopic visualization. […] DPOAEs and ABRs were first measured while animals were under anesthesia prior to bullectomy and again prior to analysis.

[5] = 6-FAM-ZOL infusion into the scala tympani via cochleostomy: cochlear fluorescence; format: in vivo, guinea pig
Method: All animals were therefore analyzed after maximal bisphosphonate deposition. […] Intracochlear delivery animals were analyzed at 3 hours as this timepoint allowed for high levels of delivery while avoiding the potential long-term effects of a cochleostomy.
The inner ears were harvested and stripped of soft tissue. All subsequent steps were performed in covered vials to prevent 6-FAM-ZOL bleaching. Specimens were fixed in an excess volume of neutral buffered formalin (10%, Fisher Scientific, Pittsburgh PA) at room temperature for 24 hours. The neutral buffered formalin was changed and fixation continued for another 24 hours. To prepare for resin embedding, specimens were dehydrated in an ascending series of ethanol (Fisher Scientific, 24 hr at 70%, 1 hr at 70%, 1 hr at 85%, 0.5 hr at 95%, 0.5 hr at 100%) followed by a wash in xylene (Fisher Scientific) and a 15 minute immersion in xylene. Specimens were cleared of xylene by a 1 hour infiltration in methyl methacrylate (MMA, Acrylosin soft, Dorn and Hart, Villa Park, IL) under vacuum. The MMA solution was changed and samples were infiltrated for 24 hours under vacuum. The infiltration solution was changed and the process was repeated for another 24 hours. Specimens were embedded in a solution of MMA containing 0.25% w/v (2.5 g/L) of perkadox-16 (Dom and Hart) for several hours under vacuum. […]
High-resolution images (1360 by 1024; 16 bit) were taken under FITC illumination (470/40 excitation, 4951p dicroic; 525/50 emission) using a Carl Zeiss Axiovert 200 Inverted Microscope. ImageJ (Rasband WS, ImageJ, United States National Institutes of Health, Bethesda, Maryland, USA, 1997-2014) was used to quantify the amount of fluorescence within the cochlear wall and modiolus at each half-turn, as shown in FIG. 1. Background fluorescence, defined as the average amount of fluorescence in an area of the resin block containing no sample, was subtracted from all measurements. […] Confocal images were collected over a depth of 500 μm to generate maximum fluorescence images. […]

[6] = Hearing measurements (CAP, DPOAE) after cochleostomy infusion; format: in vivo, guinea pig
Method: For the cochleostomy experiments, compound action potentials (CAPs) from the auditory nerve were substituted for ABRs.
A cochleostomy was performed approximately 0.5 mm distal to the round window via a bullectomy approach and the PTFE tubing was inserted into the scala tympani. Dental cement was used to seal the cochleostomy around the tubing. Infusion was performed at 1 μL over one minute, five times, spaced nine minutes apart. Control animals were treated with AP alone; 0.02× dosage animals were infused with 6-FAM-ZOL at 0.25 μg/μL; and 0.04× dosage animals were infused with 6-FAM-ZOL at 0.125 μg/μL+0.193 μg/μL zoledronate (total 4% of the 1× human zoledronate dose by molar weight). DPOAEs and CAPs were measured at time 0 (i.e., after cannula insertion and prior to infusion) and at 3 hrs. In independent experiments, three control animals were treated with AP alone, four animals were treated with AP containing 0.02× 6-FAM-ZOL, and three animals were treated with AP containing 0.04× 6-FAM-ZOL+zoledronate.

[7] = Human temporal bone model: 6-FAM-ZOL delivery through the oval window
Method: 6-FAM-ZOL was synthesized as described in Example 4 and was dissolved in artificial perilymph (AP) at a concentration of 10 μg/μL. The content of AP (pH 7.4) was 130 mM NaCl, 3.5 mM KCl, 1.5 mM CaCl2, 5.5 mM glucose, and 20 mM HEPES.
Six freshly harvested cadaveric human temporal bones, which were obtained within 24 hours after death by the human temporal bone histopathology lab at Massachusetts Eye and Ear Infirmary, were used. The Pathology Quality Assurance Committee at Massachusetts General Hospital approved procurement of the specimens. The squamous and mastoid portions were drilled away, leaving the labyrinth. In three temporal bones, 1 μL of 10 μg/μL 6-FAM-ZOL was injected through the OW using a micropipette after lifting the stapes footplate. The footplate was then carefully laid back down. […]
Images (1024 by 1024; 8 bit) were collected using a Leica TCS-SP2 confocal microscope to generate maximum fluorescence images. To identify the surface of each specimen, the point of maximum fluorescence in the z-axis was first identified. A stack of images was then collected to a depth of 500 μm from the point of maximum fluorescence. […] ImageJ was used to quantify the amount of fluorescence associated with the labeled bisphosphonate within the lateral cochlear wall and the modiolus of the scala vestibuli and scala tympani at each half-turn, as shown in FIG. 11. […]

[8] = humans, cited from earlier work
[9] = 1× systemic dose (0.185 mg/kg IP), 48 hrs
[10] = control, 1× and 3× systemic doses
[11] = systemic 1× and 3× doses, 48 hrs
[12] = three weeks after placement on the RWM
[13] = 0.02× cochleostomy infusion, 3 hrs, relative to control animals

SMILES: O=C(CCOCCOCCOCCOCCNC(=O)c1ccc(-c2cc(=O)c3ccc(O)c(O)c3o2)cc1)NCC(O)C[n+]1cccc(CC(O)(P(=O)(O)O)P(=O)(O)O)c1 (stereo not drawn) [DHF-RIS]
- neurite outgrowth (neurite length) (spiral ganglion neurons): significant outgrowth
- regeneration of ribbon synapses (ribbon synapses): significant regeneration compared to non-rescued explants, although less than native DHF
- distance neurites traveled before ending on hydroxyapatite pellets (SG neurites; conjugate pre-bound to hydroxyapatite pellets): up to 400 μM
- attraction of SG neurites after pre-binding to hydroxyapatite (SG neurites; in vitro): available to attract SG neurites

SMILES: O=C(NCC(O)C[n+]1ccn(CC(O)(P(=O)(O)O)P(=O)(O)O)c1)c1ccc(C(=O)O)c(-c2c3ccc(=O)cc-3oc3cc(O)ccc23)c1 (stereo not drawn) [Example 6-FAM-ZOL]
- average fluorescence stronger in tibiae compared to cochleae ([1]; 1× systemic dose): 50%
- average fluorescence above control, cochleae [1, 9]: approximately 5,800 fluorescence units
- average fluorescence above control, tibiae [1, 9]: ~8,800 fluorescence units
- fluorescence in lateral wall of cochleae [1, 10]: increased with dose and the differences were statistically significant
- fluorescence in tibiae [1, 10]: dose-dependent and statistically significant
- ABR change [2, 11]: No significant physiological changes
- DPOAE change [2, 11]: No significant physiological changes
- ototoxicity ([2]; systemic treatment): non-ototoxic
- cochlear fluorescence ([3]; 0.1× dose on RWM, 3 weeks): lower, but still detectable
- delivery throughout the lateral wall of the cochlea (fluorescence) ([3]; 0.3× dose in alginate bead on RWM, 3 weeks): comparable to the 1× systemic dose
- levels of fluorescence in modiolus and lateral wall vs control ([3]; RWM delivery 0.1× and 0.3×): significantly higher than the control
- ototoxicity ([4]; local delivery onto the RWM): not ototoxic
- ABR shift [4, 12]: no shifts
- DPOAE shift [4, 12]: no shifts
- total average fluorescence of the lateral wall vs control ([5]; 0.2× dose (so in the source)): significantly greater
- total average fluorescence of the modiolus vs control ([5]; 0.2× treatment (so in the source)): significantly greater
- fluorescent signal along osseous spiral lamina of the modiolus and lateral wall of the cochlea ([5]; 2% (0.02×) of the 1× systemic dose, 3 hours): bright fluorescent signal
- additional CAP shift [6, 13]: 10-15 dB
- additional DPOAE shift [6, 13]: 10-15 dB
- immediate ototoxicity ([6]; direct infusion into the cochlea): without significant immediate ototoxicity
- fluorescent signal in bony walls of the vestibular capsule and the cochlea ([7]; 1 μL of 10 μg/μL through the oval window, 4 days): strong fluorescent signal
- effect of dose (6-FAM-ZOL vs artificial perilymph) on fluorescence, lateral wall and modiolus, scala vestibuli and scala tympani ([7]; all p<0.05): significant effect of dose

SMILES: O=P(O)(O)C(O)(Cc1cccnc1)P(=O)(O)O [RIS, reference compound]
- regeneration of ribbon synapses (ribbon synapses): some ability to regenerate synapses

SMILES: O=P(O)(O)C(O)(Cn1ccnc1)P(=O)(O)O [zoledronate]
- drug remaining in plasma ([8]; after 24 hours): less than 1%
- plasma half-life ([8]; first of two half-lives): 12 min
- plasma half-life ([8]; second of two half-lives): 84 min
